Values after ≈ are worked out from the molar mass of the structure shown. Values joined by “and” are separate entries in the source; they are usually repeats but may differ in a detail not shown here. Equal values may be shown once.
What was measured:
[1] = Folin–Ciocalteau reduction (FCR) assay, reducing capacity; assay type: biochemical; conditions: gallic acid equivalents; mean ± SE
Procedure: Folin-Ciocalteu assay, commonly known as the total phenols assay, determines a sample reducing capacity. FCR contains heteropolyphosphotunstate-molybdates, which are reduced in aqueous milieu at pH ≈ 10 to blue species, presumably (PMoW11O40)^4- [29]. […] This is probably related to high hydrophobicity of these derivatives. Reducing capacity was evaluated using Folin-Ciocalteau reagent with minor modifications as described previously.

[2] = DPPH radical scavenging assay; assay type: biochemical; conditions: methanol, DPPH 20 µM, 30 min; mean ± SE
Procedure: When reduced, the solution decolorizes in proportion to the strength and concentration of the antiradical compound tested. The results of this test are usually expressed as the concentration of the compound that reduces 50% of the radical (IC50, Table 1). […] However, no clear relationship between the carboxylic chain length and DPPH radical scavenging activity could be established. Antiradical activity was evaluated spectrophotometrically as the ability of the substances to reduce the DPPH radical as described previously with minor modifications.

[3] = ABTS radical cation scavenging (Antioxidant Assay Kit); assay type: biochemical; conditions: Trolox equivalents; aqueous buffer pH 5; mean ± SE
Procedure: Determination of ABTS scavenging activity involves an electron-transfer reaction. […] The capacity to scavenge the radical cation (ABTS^·) was evaluated using the Antioxidant Assay Kit (CS0790, Sigma-Aldrich, Prague, Czech Republic) and expressed as Trolox equivalents (TE) from the Trolox calibration curve.

[4] = system: rat liver microsomal membranes; assay: Inhibition of microsomal lipid peroxidation induced by tert-butyl hydroperoxide (TBARS); assay type: biochemical; conditions: male rat liver microsomes, tert-butylhydroperoxide 1 mM, 37 °C, 30 min, TBARS; mean ± SE; read-out: Lpx (IC50; µM)
Source text: Lipid peroxidation is a type of oxidative degradation of lipids caused by free radicals in cell membranes, resulting in cell damage. The most notable initiators of this chain reaction in living cells are reactive oxygen species (ROS), such as OH· and HO2·, which combine with a hydrogen atom to make water and a fatty acid radical. We used tert-butyl hydroperoxide, a relatively stable organic peroxide, as initiator of peroxidation of rat liver microsomal membranes. The inhibition of this reaction depends not only on the free radical scavenging capacity, but also on the capacity of these compounds to interact with and penetrate lipid bilayers. Isoquercitrin derivatives differed considerably in their capacity to inhibit the peroxidation of microsomal membranes. […] A similar trend, e.g., improving the activity in medium chain derivatives with subsequent drop for longer chain esters, was reported for anti-proliferative activity of IQ monocarboxylic acid esters on the growth of tumoral Caco2 cells, and also for the inhibition of tyrosinase activity.
Pooled microsomes from male rat livers (M9066, Sigma-Aldrich, Prague, Czech Republic) were washed five times using centrifugation and phosphate-buffered saline (PBS, 13,500 rpm, 5 min, 4 °C) to remove sucrose. In addition, 400 µL of the diluted microsomal suspension (0.625 mg protein/mL in PBS), the compounds tested in 50 µL of dimethyl sulfoxide (DMSO, final concentration 5–2000 µM) and 50 µL of tert-butylhydroperoxide in PBS (final concentration 1 mM) were mixed and incubated at 37 °C for 30 min. Determination of lipid peroxidation products as thiobarbituric acid reactive substances (TBARS) and calculation of the IC50 values were performed as described previously.

Solubility in water = assay type: physicochemical; conditions: pH = 6.5, isoquercitrin purity 96.5%
Source text: The hydrophilicity/lipophilicity of a compound is often crucial for assessing its bioavailability. Flavonoids are generally poorly soluble in water; aqueous solubility increases at alkaline pH as phenols are weak acids. […] [15]).

[5] = pH not given; cited from earlier work
[6] = 50 °C, cited from earlier work

For `O=c1c(O[C@@H]2O[C@H](CO)[C@@H](O)[C@H](O)[C@H]2O)c(-c2ccc(O)c(O)c2)oc2cc(O)cc(O)c12` [Compound 1, quercetin-3-O-β-D-glucopyranoside, reference compound], the “FCR (GAE)” value [1] was 1.84 GAE and 1.84 ± 0.04 ^a GAE, the IC50 [2] was 1.4 ± 0.06 µM and the “ABTS (TE)” value [3] was 1.97 TE and 1.97 ± 0.06 ^i TE. For the same compound, the IC50 [4] was 972 ± 11 µM, the solubility (Solubility in water) was 360 µg/mL (≈ 775 µM) and the solubility in water [5] was 95 mg/L (≈ 205 µM). For the same compound, the solubility in acetone ([6]; acetone) was 14 g/L (≈ 30100 µM), the solubility in acetonitrile ([6]; acetonitrile) was 1.8 g/L (≈ 3880 µM) and the “solubility in tert-amyl alcohol” value ([6]; tert-amyl alcohol) was 30 g/L (≈ 64600 µM).
